Reference: US20120077858A1, “COMPOUNDS ACT AT MULTIPLE PROSTAGLANDIN RECEPTORS GIVING A GENERAL ANTI-INFLAMMATORY RESPONSE” (ALLERGAN, INC., priority 2010, published 2012)
Several values for one entry are separate records, joined by “and”; a condition that tells them apart may be missing. Equal entries are not always repeated. Where two headings read alike, the source gives them in different places.

How the values were obtained:
Assay type in all cases: cell-based
[1] = target: T1, human prostanoid FP receptor (Homo sapiens, UniProt P43088); assay: FLIPR Ca2+ signaling antagonist assay, FP receptor stable cell line; settings: HEK-293 EBNA stable cells, vs standard agonist 17-phenyl-PGF2α
T1 construct: expressed in transfected cells
Experimental: (§1) The above compounds were tested for PG antagonist activity as follows using human recombinant prostanoid receptor (DP1, EP1-4, FP, IP and TP) stable cell lines:
(§2) In order to measure the response of Gs and Gi coupled prostanoid receptors as a Ca^2+ signal, chimeric G protein cDNAs were used. Stable cell lines over-expressing human prostanoid DP1, EP1-4, FP, IP, and TP receptors were established as follows:
(§3) Briefly, human prostanoid DP1, EP2, and EP4 receptor cDNAs were co-transfected with chimeric Gqs cDNA containing a haemagglutanin (HA) epitope; human prostanoid EP3 receptors were co-transfected with chimeric Gqi-HA; human EP1, FP, IP, and TP receptor cDNAs were expressed with no exogenous G-proteins. Gqs and Gqi chimeric cDNAs (Molecular Devices, Sunnyvale, Calif., U.S.A.), as well as cDNAs of prostanoid receptors, were cloned into a pCEP4 vector with a hygromycin B selection marker. Transfection into HEK-293 EBNA (Epstein-Barr virus nuclear antigen) cells was achieved by the FuGENE 6 transfection Reagent (Roche Applied Science, Indianapolis, Ind., USA). Stable transfectants were selected according to hygromycin resistance. Because Gqs and Gqi contained an HA epitope, G-protein expression was detected by Western blotting analysis using anti-mouse HA monoclonal antibody and horseradish peroxidase (HRP)-conjugated secondary antibody, while functional expression of prostanoid receptors was detected by FLIPR screening. These stable cell lines were validated using previously published antagonists at 10 μM against serial dilutions of standard agonists by FLIPR functional assays for Ca^2+ Signaling (as described below).
(§4) Ca^2+ signaling studies were performed using a FLIPR TETRA system (Molecular Devices, Sunnyvale, Calif., USA) in the 384-format. This is a high-throughput instrument for cell-based assays to monitor Ca^2+ signaling associated with GPCRs and ion channels. Cells were seeded at a density of 5×10^4 cells/well in BioCoat poly-D-lysine coated, black wall, clear bottom 384-well plates (BD Biosciences, Franklin lakes, NJ, USA) and allowed to attach overnight in an incubator at 37° C. […]
(§5) After 4.5 minutes, a 7-point serial dilution of the standard agonist for the corresponding receptor, in a 25 μl volume was injected at the final concentrations from 10^−11M to 10^−5M 10-fold serial dilution increments for cells expressing human recombinant DP1, EP1, EP2, EP3, EP4, FP, and IP receptors. […] Cells were excited with LED (light emitting diode) excitation at 470-495 nm and emission was measured through an emission filter at 515-575 nm. Assay plates were read for 3.5 minutes using the FLIPR^TETRA. The peak increase in fluorescence intensity was recorded for each well. […]

[2] = target: T2, human prostanoid EP1 receptor (Homo sapiens, UniProt P34995); assay: FLIPR Ca2+ signaling antagonist assay, EP1 receptor stable cell line; settings: vs standard agonist PGE2
T2 construct: expressed in transfected cells
T2 sequence (P34995 1-402): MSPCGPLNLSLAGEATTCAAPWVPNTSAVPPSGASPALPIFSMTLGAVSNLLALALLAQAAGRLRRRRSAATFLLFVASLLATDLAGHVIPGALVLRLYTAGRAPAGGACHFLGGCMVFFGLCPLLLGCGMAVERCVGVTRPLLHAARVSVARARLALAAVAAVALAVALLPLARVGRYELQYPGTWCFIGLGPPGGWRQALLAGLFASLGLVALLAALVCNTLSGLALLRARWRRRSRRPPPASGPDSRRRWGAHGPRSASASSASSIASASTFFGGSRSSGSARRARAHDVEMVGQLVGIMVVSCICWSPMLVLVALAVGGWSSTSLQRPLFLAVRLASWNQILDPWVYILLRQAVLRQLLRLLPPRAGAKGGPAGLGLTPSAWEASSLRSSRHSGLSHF
Experimental: as §1, §2, §3, §4, §5

[3] = target: T3, human prostanoid EP2 receptor (Homo sapiens, UniProt P43116); assay: FLIPR Ca2+ signaling antagonist assay, EP2 receptor stable cell line; settings: chimeric Gqs, vs standard agonist PGE2
T3 construct: expressed in transfected cells
Experimental: as §1, §2, §3, §4, §5

[4] = target: T4, human prostanoid TP receptor (Homo sapiens, UniProt P21731); assay: FLIPR Ca2+ signaling antagonist assay, TP receptor stable cell line
T4 construct: expressed in transfected cells
T4 sequence (P21731 1-343): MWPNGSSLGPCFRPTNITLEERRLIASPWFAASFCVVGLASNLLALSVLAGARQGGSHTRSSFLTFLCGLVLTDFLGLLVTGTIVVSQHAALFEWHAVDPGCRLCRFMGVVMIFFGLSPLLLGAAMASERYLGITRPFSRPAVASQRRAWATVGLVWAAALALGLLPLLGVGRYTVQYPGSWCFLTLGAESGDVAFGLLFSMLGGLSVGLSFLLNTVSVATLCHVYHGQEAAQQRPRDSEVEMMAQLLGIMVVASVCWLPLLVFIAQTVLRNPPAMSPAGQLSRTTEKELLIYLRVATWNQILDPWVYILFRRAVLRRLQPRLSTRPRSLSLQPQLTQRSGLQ
Experimental: as §1, §2
as §3, with “These stable cell lines were validated using previously published antagonists at 10 μM against serial dilutions of standard agonists by FLIPR functional assays for Ca^2+ Signaling (as described below).” left out
as §5

[5] = target: T5, human prostanoid IP receptor (Homo sapiens, UniProt P43119); assay: FLIPR Ca2+ signaling antagonist assay, IP receptor stable cell line; settings: HEK-293 EBNA stable cells, vs standard agonist Cicaprost
T5 construct: expressed in transfected cells
Experimental: as §1, §2, §3, §4, §5

[6] = target: T6, human prostanoid EP4 receptor (Homo sapiens, UniProt P35408); assay: FLIPR Ca2+ signaling antagonist assay, EP4 receptor stable cell line; settings: chimeric Gqs, vs standard agonist PGE2
T6 construct: expressed in transfected cells
Experimental: as §1, §2, §3, §4, §5

[7] = target: T7, human prostanoid EP3 receptor (Homo sapiens, UniProt P43115); assay: FLIPR Ca2+ signaling antagonist assay, EP3 receptor stable cell line; settings: chimeric Gqi, vs standard agonist PGE2
T7 construct: expressed in transfected cells
T7 sequence (P43115 1-390): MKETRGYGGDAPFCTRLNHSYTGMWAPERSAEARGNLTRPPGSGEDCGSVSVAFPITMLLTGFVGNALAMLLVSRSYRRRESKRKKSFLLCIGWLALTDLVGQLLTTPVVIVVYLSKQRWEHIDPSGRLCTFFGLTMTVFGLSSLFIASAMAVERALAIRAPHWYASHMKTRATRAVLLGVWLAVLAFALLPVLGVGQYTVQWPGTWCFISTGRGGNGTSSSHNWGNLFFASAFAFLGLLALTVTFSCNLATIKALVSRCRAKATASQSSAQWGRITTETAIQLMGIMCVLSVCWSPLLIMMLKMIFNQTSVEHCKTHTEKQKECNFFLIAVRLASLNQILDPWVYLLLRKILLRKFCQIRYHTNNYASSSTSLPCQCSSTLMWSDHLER
Experimental: as §1, §2, §3, §4, §5

[8] = target: T8, human prostanoid DP1 receptor (Homo sapiens, UniProt Q13258); assay: FLIPR Ca2+ signaling antagonist assay, DP1 receptor stable cell line
T8 construct: expressed in transfected cells
T8 sequence (Q13258 1-359): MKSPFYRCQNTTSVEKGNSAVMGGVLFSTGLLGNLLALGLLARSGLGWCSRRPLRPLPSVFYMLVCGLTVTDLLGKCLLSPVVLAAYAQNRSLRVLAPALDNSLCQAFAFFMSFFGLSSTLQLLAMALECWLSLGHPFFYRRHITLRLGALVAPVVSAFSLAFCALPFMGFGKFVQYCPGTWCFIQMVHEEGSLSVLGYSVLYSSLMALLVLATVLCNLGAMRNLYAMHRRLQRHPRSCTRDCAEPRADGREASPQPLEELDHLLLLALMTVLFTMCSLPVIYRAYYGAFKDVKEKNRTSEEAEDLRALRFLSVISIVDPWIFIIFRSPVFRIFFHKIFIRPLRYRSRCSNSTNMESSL
Experimental: as §1, §2
Briefly, human prostanoid DP1, EP2, and EP4 receptor cDNAs were co-transfected with chimeric Gqs cDNA containing a haemagglutanin (HA) epitope; human prostanoid EP3 receptors were co-transfected with chimeric Gqi-HA; human EP1, FP, IP, and TP receptor cDNAs were expressed with no exogenous G-proteins. […] Because Gqs and Gqi contained an HA epitope, G-protein expression was detected by Western blotting analysis using anti-mouse HA monoclonal antibody and horseradish peroxidase (HRP)-conjugated secondary antibody, while functional expression of prostanoid receptors was detected by FLIPR screening. […]
After 4.5 minutes, a 7-point serial dilution of the standard agonist for the corresponding receptor, in a 25 μl volume was injected at the final concentrations from 10^−11M to 10^−5M 10-fold serial dilution increments for cells expressing human recombinant DP1, EP1, EP2, EP3, EP4, FP, and IP receptors. […] Assay plates were read for 3.5 minutes using the FLIPR^TETRA. […]

[9] = read-out: EC50 (nM) on Prostanoid Receptor Functional Activity Measured by FLIPR
[10] = HEK-293 EBNA stable cells, read-out: EC50 (nM) on Prostanoid Receptor Functional Activity Measured by FLIPR, (FLIPR) Kb (nM): EP1
[11] = HEK-293 EBNA stable cells, read-out: EC50 (nM) on Prostanoid Receptor Functional Activity Measured by FLIPR, (FLIPR) Kb (nM): EP2
[12] = HEK-293 EBNA stable cells, vs standard agonist U-46619, read-out: EC50 (nM) on Prostanoid Receptor Functional Activity Measured by FLIPR, (FLIPR) Kb (nM): TP
[13] = HEK-293 EBNA stable cells, read-out: EC50 (nM) on Prostanoid Receptor Functional Activity Measured by FLIPR, (FLIPR) Kb (nM): EP4
[14] = HEK-293 EBNA stable cells, read-out: EC50 (nM) on Prostanoid Receptor Functional Activity Measured by FLIPR, (FLIPR) Kb (nM): EP3
[15] = EC50 (nM) on Prostanoid Receptor Functional Activity Measured by FLIPR

T1 sequence (P43088 whole entry): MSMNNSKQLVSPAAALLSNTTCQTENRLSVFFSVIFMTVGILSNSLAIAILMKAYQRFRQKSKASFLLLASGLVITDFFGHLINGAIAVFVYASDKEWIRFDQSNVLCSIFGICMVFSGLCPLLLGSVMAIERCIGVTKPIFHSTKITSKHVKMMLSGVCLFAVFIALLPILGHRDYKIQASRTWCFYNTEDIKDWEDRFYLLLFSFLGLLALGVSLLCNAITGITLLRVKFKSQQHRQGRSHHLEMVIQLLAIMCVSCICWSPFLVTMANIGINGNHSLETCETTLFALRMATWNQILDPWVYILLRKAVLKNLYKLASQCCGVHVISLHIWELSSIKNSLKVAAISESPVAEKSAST
T3 sequence (P43116 whole entry): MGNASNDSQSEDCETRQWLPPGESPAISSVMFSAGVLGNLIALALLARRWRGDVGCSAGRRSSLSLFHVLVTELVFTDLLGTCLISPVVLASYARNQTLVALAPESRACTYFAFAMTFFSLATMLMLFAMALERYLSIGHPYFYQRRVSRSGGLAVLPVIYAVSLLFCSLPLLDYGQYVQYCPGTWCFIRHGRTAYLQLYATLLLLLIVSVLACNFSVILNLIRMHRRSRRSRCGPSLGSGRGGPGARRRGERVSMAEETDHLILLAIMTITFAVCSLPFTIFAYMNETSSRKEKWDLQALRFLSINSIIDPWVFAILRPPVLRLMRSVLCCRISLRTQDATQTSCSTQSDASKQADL
T6 sequence (P35408 whole entry): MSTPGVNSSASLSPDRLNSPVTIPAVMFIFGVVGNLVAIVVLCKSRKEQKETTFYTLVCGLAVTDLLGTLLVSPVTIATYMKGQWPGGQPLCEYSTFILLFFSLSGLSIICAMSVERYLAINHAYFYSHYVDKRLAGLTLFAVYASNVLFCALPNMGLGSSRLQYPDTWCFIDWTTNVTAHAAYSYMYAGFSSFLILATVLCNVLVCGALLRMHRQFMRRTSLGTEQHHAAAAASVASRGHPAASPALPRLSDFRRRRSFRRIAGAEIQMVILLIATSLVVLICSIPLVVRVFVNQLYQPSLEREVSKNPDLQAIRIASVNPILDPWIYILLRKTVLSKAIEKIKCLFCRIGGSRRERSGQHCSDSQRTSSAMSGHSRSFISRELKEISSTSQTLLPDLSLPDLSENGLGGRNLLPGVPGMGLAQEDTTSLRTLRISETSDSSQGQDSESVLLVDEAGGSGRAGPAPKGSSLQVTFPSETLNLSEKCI
T5 sequence (P43119 whole entry): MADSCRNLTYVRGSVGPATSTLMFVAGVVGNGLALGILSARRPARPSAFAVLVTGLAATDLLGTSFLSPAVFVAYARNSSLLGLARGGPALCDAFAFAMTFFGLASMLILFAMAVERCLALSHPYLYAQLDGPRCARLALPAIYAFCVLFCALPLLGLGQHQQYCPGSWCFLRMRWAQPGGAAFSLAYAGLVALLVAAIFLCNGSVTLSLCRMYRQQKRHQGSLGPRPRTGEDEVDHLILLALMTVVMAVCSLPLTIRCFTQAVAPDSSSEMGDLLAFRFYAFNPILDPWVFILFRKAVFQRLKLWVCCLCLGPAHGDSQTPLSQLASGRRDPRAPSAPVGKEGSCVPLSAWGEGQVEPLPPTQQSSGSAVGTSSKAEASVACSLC

Kb [1, 9]	Kb [2, 10]	Kb [3, 11]	Kb [4, 12] [nM]	Kb [5, 9]	Kb [6, 13]	Kb [7, 14]	Kb ([8]; HEK-293 EBNA stable cells, chimeric Gqs, vs standard agonist BW 245C, read-out: EC50 (nM) on Prostanoid Receptor Functional Activity Measured by FLIPR, (FLIPR) Kb (nM): DP) [nM]	SMILES	Kb [1, 15] [nM]	Kb ([2]; EC50 (nM) on Prostanoid Receptor Functional Activity Measured by FLIPR, (FLIPR) Kb (nM): EP1, HEK-293 EBNA stable cells) [nM]	Kb ([3]; EC50 (nM) on Prostanoid Receptor Functional Activity Measured by FLIPR, (FLIPR) Kb (nM): EP2, HEK-293 EBNA stable cells) [nM]	Kb [4] [nM]	Kb [5, 15] [nM]	Kb ([6]; EC50 (nM) on Prostanoid Receptor Functional Activity Measured by FLIPR, (FLIPR) Kb (nM): EP4, HEK-293 EBNA stable cells) [nM]	Kb [8] [nM]	Kb ([7]; EC50 (nM) on Prostanoid Receptor Functional Activity Measured by FLIPR, (FLIPR) Kb (nM): EP3, HEK-293 EBNA stable cells) [nM]
350 nM and 270 nM	47 nM and 20 nM	6400 nM and 830 nM	< 1	550 nM and 860 nM	38 nM and 10 nM	82 nM and 47 nM		O=C(CCc1ccc(F)cc1CN1CCC[C@H]1c1nc(C(=O)NCCCCC2CCCCC2)co1)NS(=O)(=O)C(F)(F)F [Example 12a]								
460 nM	70 nM	5500 nM		9500 nM	37 nM	100 nM		O=C(CCc1ccc(Cl)cc1CN1CCC[C@H]1c1nc(C(=O)NCCCCC2CCCCC2)co1)NS(=O)(=O)C(F)(F)F [Example 12b, (S)—N-(4-cyclohexylbutyl)-2-(1-(5-chloro-2-(3-oxo-3-(trifluoromethylsulfonamido)propyl)benzyl)pyrrolidin-2-yl)oxazole-4-carboxamide]								
360 nM	63 nM	3900 nM	0.3	1000 nM	7 nM	150 nM	3	O=C(CCc1cc2c(cc1CN1CCCC1c1nc(C(=O)NCCCCC3CCCCC3)co1)OCO2)NS(=O)(=O)C(F)(F)F (centres unmarked) [Example 12d]								
								CCCCCCCCNC(=O)c1coc(C2CCCN2Cc2cc(F)ccc2CCC(=O)NS(=O)(=O)C(F)(F)F)n1 (centres unmarked) [Example 12e, 2-{1-[5-fluoro-2-(3-oxo-3-{[(trifluoromethyl)sulfonyl]amino}propyl)benzyl]pyrrolidin-2-yl}-N-octyl-1,3-oxazole-4-carboxamide]	270	20	2500	> 1	290	19	18	110
